“Also recorded” adds a separate entry of the source. Read-outs that look alike come from different tables or passages of the source.
Legend:
[1] = target: c-MYC G-quadruplex (PU27 c-MYC sequence); experiment: G-quadruplex polymerase stop assay, PU27 c-MYC template; format: biochemical; details: for EC50: Taq polymerase stop product, PU27 c-MYC template, 55° C., read-out: c-MYC (ED50 μM); for fold selectivity/preference for the c-MYC G-quadruplex over the human telomeric G-quadruplex: from ED50 values
[2] = test system: c-MYC expression in HeLa S3 cells; experiment: Effect on c-MYC transcription (real-time PCR, normalized to β-actin); format: cell-based, human; details: at high (100 μM) concentration, 24 h
Duplex DNA = experiment: Polymerase stop assay, pausing at primer position (duplex product); format: biochemical; details: for Duplex DNA (ED30 μM): normalized percentage of duplex product; for Duplex DNA ED30, fold in parentheses (relative to c-MYC ED50): value in parentheses (×)
Procedure: These were synthesized and purified as described above. Labeled primer (100 nM) and template DNA (100 nM) were annealed in an annealing buffer (50 mM Tris-HCl, pH 7.5, 10 mM NaCl) by heating to 95° C. and then slowly cooled to room temperature. […] KCl and NaCl (10 mM each) were added to the reaction. Taq DNA polymerase was added, and the mixture was incubated at 55° C. for 20 min.
Pausing at the G-quadruplex forming site is quantified as the normalized percentage of stop product with respect to the total intensity per lane. […] This is quantified as the normalized percentage of duplex product with respect to the total intensity per lane.

[3] = test system: human telomeric G-quadruplex; experiment: G-quadruplex polymerase stop assay, human telomeric template; format: biochemical; details: for EC50: Taq polymerase stop product, four TTAGGG repeats template, 37° C., read-out: Huam Telomeric (ED50 μM)
c-MYC G-quadruplex = experiment: Photomediated strand cleavage reaction
HeLa S3 cells = experiment: In vitro cytotoxicity assay (CellTiter 96 MTS); format: cell-based, human
Procedure: HeLa S3 (human cervical carcinoma metastasis were obtained from ATCC, and were cultured in Dulbecco's modification of Eagle's Medium (DMEM, Cellgro) with 10% FBS, 50 U/ml penicillin G sodium, 50 U/ml streptomycin sulfate. Adherent cells were grown to 80% confluency and passaged at 1:10 in the following fashion. The medium was aspirated by vacuum, and the cells were washed with 1×PBS (Cellgro). Sufficient trypsin (Gibco/BRL) was added to cover the cells, and cells were incubated at room temperature for approximately 3 min, or until cells detached from the flask with firm tapping. The trypsin was neutralized with an equal volume of culture medium, and the cells were counted using a haemocytometer and passaged at 1:10 into fresh medium. […]
In vitro cytotoxicity assays were performed using the CellTiter 96 Non-Radioactive Cell Proliferation Assay (Promega Corp., Madison, Wis.). […] Absorbance was measured using a Wallac Victor Multilabel Counter (Perkin Elmer, Shelton, Conn.) at 490 nm. Data were expressed as the percentage of survival of control calculated from the absorbance corrected for background absorbance. The surviving fraction of cells was determined by dividing the mean absorbance values of the test agents by the mean absorbance values of untreated control.

Row | EC50 [1] [µM] | fold selectivity/preference for the c-MYC G-quadruplex over the human telomeric G-quadruplex [1] | concentration giving complete arrest of the polymerase synthesis at the G-quadruplex forming site ([1]; template containing c-MYC sequence, FIG. 5A) [µM] | interaction with the human telomeric G-quadruplex structure (ED50 can't be calculated) [3] | pausing in the polymerase synthesis at the G-quadruplex forming site ([3]; at 20 μM, template containing human telomeric sequence, FIG. 5B) | Compound | inhibitory effect on c-MYC expression [2] | duplex (or single strand) DNA binding, in words (Duplex DNA) | photoinduced cleavage of c-MYC G-quadruplex / photoactivity (c-MYC G-quadruplex; compared to TMPyP4, FIG. 7) | Duplex DNA (ED30 μM) (Duplex DNA) | Duplex DNA ED30, fold in parentheses (relative to c-MYC ED50) (Duplex DNA) | EC50 [3] [µM] | EC50 (HeLa S3 cells) [µM] | EC50 (HeLa S3 cells; HeLa S3, 4 days, MTS, FIG. 8, read-out: cytotoxicity ED50) [µM] | photoinduced cleavage of c-MYC G-quadruplex (c-MYC G-quadruplex; at 1 μM, FIG. 6 lane 2)
1 | 0.025 | greater than 1,000 fold | 0.04 | only very little interaction | little pausing | 5,10,15,20-tetra(N-methyl-3-pyridyl)-26,28-diselena sapphyrin chloride [Se2SAP] | comparable to TMPyP4; also recorded: same as that of TMPyP4 | little or no duplex binding activity; also recorded: absence of duplex binding | minimal cleavage; also recorded: not photoactive |  |  |  |  |  | 
2 | 2.34 | 8 fold |  |  |  | C[n+]1cccc(-c2c3nc(c(-c4ccc[n+](C)c4)c4ccc([nH]4)c(-c4ccc[n+](C)c4)c4nc(c(-c5ccc[n+](C)c5)c5ccc2[nH]5)C=C4)C=C3)c1 [TMPyP3] |  |  |  | >50 (>50) μM | >50 (>50) | 19.5 | 43.4 |  | 

Row | Compound | EC50 [1] [µM] | fold selectivity/preference for the c-MYC G-quadruplex over the human telomeric G-quadruplex [1] | concentration giving complete arrest of the polymerase synthesis at the G-quadruplex forming site ([1]; template containing c-MYC sequence, FIG. 5A) [µM] | interaction with the human telomeric G-quadruplex structure (ED50 can't be calculated) [3] | pausing in the polymerase synthesis at the G-quadruplex forming site ([3]; at 20 μM, template containing human telomeric sequence, FIG. 5B) | inhibitory effect on c-MYC expression [2] | duplex (or single strand) DNA binding, in words (Duplex DNA) | photoinduced cleavage of c-MYC G-quadruplex / photoactivity (c-MYC G-quadruplex; compared to TMPyP4, FIG. 7) | Duplex DNA (ED30 μM) (Duplex DNA) | Duplex DNA ED30, fold in parentheses (relative to c-MYC ED50) (Duplex DNA) | EC50 [3] [µM] | EC50 (HeLa S3 cells) [µM] | EC50 (HeLa S3 cells; HeLa S3, 4 days, MTS, FIG. 8, read-out: cytotoxicity ED50) [µM] | photoinduced cleavage of c-MYC G-quadruplex (c-MYC G-quadruplex; at 1 μM, FIG. 6 lane 2)
3 | C[n+]1ccc(-c2c3nc(c(-c4cc[n+](C)cc4)c4ccc([nH]4)c(-c4cc[n+](C)cc4)c4ccc([nH]4)c(-c4cc[n+](C)cc4)c4nc2C=C4)C=C3)cc1 [TMPyP4] | 0.99 | 19 fold |  |  |  |  | little or no duplex binding activity |  | >50 (>50) μM | >50 (>50) | 18.9 |  | 25.6 | considerable cleavage pattern

Reference: patent publication US7001588B2, “Expanded porphyrin compositions for tumor inhibition” (Cylene Pharmaceuticals, priority 2002, dated 2006)
